The values that follow come from patent US6392032B1, “Heavily fluorinated sugar analogs” (Board of Regents University of Nebraska-Lincoln, priority 1996, dated 2002).

This data set is described as follows: Qualitative solubility in solvents. The format is physicochemical.

For the compound `OCC12OC(O)C1C(F)(F)C(F)(F)C2(F)F` (centres unmarked) [Compound 6, 1-Hydroxy-5-(5′-hydroxymethyl)-2,2,3,3,4,4-hexafluorooxane], the Qualitative solubility result is listed as “insoluble” (in CHCl3 and other solvents of lower polarity); “soluble” (in acetone, EtOAc, ether, and water).
